Assay [1] deals with S. pneumoniae strain WU2 adhesion to A549 cells. Kind of assay: Inhibition of adhesion of S. pneumoniae strain WU2 to A549 cells. Format: cell-based, Streptococcus pneumoniae. The conditions noted are these: CFU counting. On the procedure:
(§1) A549 and D562 cells were cultured on fibronectin-coated 96-well plates (Fig 2 and S2 Fig) or on Ibidi 8 well chambers (Ibidi GmbH, Planegg/Martinsried, Germany; Figs 3, 4 and 5) or on 96-well plates without fibronectin coating (Figs 7 and 8 and S3 Fig), as previously described. Briefly, the cells were seeded at 5 × 10^4 cells/well in DMEM supplemented with 10% fetal calf serum (FCS) (without antibiotics). Twenty four hours later, the cells (~10^5 cells/well) were blocked with 0.5% gelatin for 1 h. rPtsA (0–500 nM) was then added to the cultured cells for 1 h of incubation. Excess protein was removed, and S. pneumoniae bacteria at a MOI of ~10:1 were added for additional 1 h of incubation. The inoculum size was verified in each experiment. […] Following the incubation, excess bacteria were removed, and cells were detached with trypsin and plated onto blood agar plates for counting. All the inhibitors were used at concentrations below their toxic concentrations either to the bacteria or to the cells. Keyhole limpet hemocyanin (KLH) protein was used as a negative control. Experiments were conducted in triplicates and repeated on 3 different occasions.
(§2) Inhibition of adhesion to A549 cells by anti-rPtsA antiserum, phages or peptides was performed as previously described. Briefly, bacteria were incubated for 1 h with rabbit anti-rPtsA antiserum, the phages, or the selected peptides. The bacteria were then added to the cultured human cells for an additional hour. Following this incubation, excess bacteria were removed, and the procedure was continued as described above. All the inhibitors were used at concentrations below their toxic concentrations either to the bacteria or to the cells. Negative controls included pre-immune serum, phage carrying no insert or a non-inhibitory insert, and a scrambled peptide. Each experiment was performed in triplicates and repeated on 3 different occasions and a representative experiment is presented.

For assay [2], the system named is S. pneumoniae strain 3.8DW adhesion to A549 cells. Kind of assay: Inhibition of adhesion of S. pneumoniae strain 3.8DW to A549 cells. Format: cell-based, Streptococcus pneumoniae. Conditions: bacteria treated 1 h with peptide, added to A549 cells (plates without fibronectin coating) for 1 h; CFU counting. The procedure:
as §1, §2

Assay [3] relates to S. pneumoniae adhesion to A549 cells. The assay is described as follows: Inhibition of adhesion of S. pneumoniae to A549 cells, strain not stated (scrambled peptide control). Conditions: bacteria treated 1 h with peptide, added to A549 cells for 1 h; CFU counting; strain not printed (Fig 8K). Format: cell-based, Streptococcus pneumoniae. The procedure: as §1
Fig 8 Inhibition of adhesion of S. pneumoniae cells to A549 cells by target-derived peptides. […]

A further assay deals with S. pneumoniae strain WU2. Kind of assay: Nasopharyngeal and lung colonization of CBA/N^xid mice after intranasal inoculation of peptide-pretreated strain WU2. Type of assay: in vivo, Streptococcus pneumoniae. The procedure: BALB/c (highly resistant to S. pneumonia) or CBA/N^xid (highly susceptible to S. pneumoniae) mice strains were immunized subcutaneously (SC) with 25 μg of rPtsA emulsified with complete Freund’s adjuvant (CFA) and subsequently boosted (days 14 and 28) with incomplete Freund’s adjuvant (IFA). On day 42, the BALB/c and CBA/N^xid mice were challenged intranasally (IN), under deep anesthesia using Isoflurane (Piramal Critical Care Inc., PA, USA), with a sublethal dose of strain WU2 (5 × 10^7 and 5 ×x 10^5, respectively). Mice were humanely sacrificed 3 and 24 h later by CO2 asphyxiation, as recommended by the AVMA Guidelines for Euthanasia in Animals: 2013 Edition (https://www.avma.org/KB/Policies/Documents/euthanasia.pdf). Strain WU2 cells were pretreated with the respective peptides and then inoculated IN into adult CBA/N^xid mice. Mice were euthanized 3, 24 or 48 h later with CO2. The nasopharynx and right lobe lung were excised, homogenized and plated onto blood agar plates for bacterial colony counting. For survival experiments, after an immunization regime similar to that described above, BALB/c or CBA/N^xid mice were challenged with a lethal dose of strain WU2 either IN (10^8 CFU and 10^6 CFU, respectively) or intravenously (10^4 CFU). […] The following criteria were considered sufficient evidence of distress to warrant such intervention in order to minimize pain and suffering of the animals: severe weight loss (20% body weight); reluctance or inability to move freely; appearance of bristle fur; social disengagement; refusal or inability to eat or drink. No analgesic treatment was provided, as such treatment may alter the immune response and may independently affect the outcome of the experiments.
Strain WU2 cells were pretreated with Eps 1, BMPER and PCDH19 peptides and then inoculated IN into adult CBA/N^xid mice. Mice were euthanized 3, 24 or 48 h later. The nasopharynx and lungs were excised, homogenized and plated onto blood agar plates for counting. As a control, another group of mice was injected with bacteria treated ex vivo for 1 h with PBS alone.
Fig 9 Effects of target-derived peptides on nasopharyngeal and lung colonization and survival in mice. Strain WU2 cells were pretreated with peptide and then inoculated IN into adult CBA/N^xid mice. As a control, another group of mice was injected with bacteria treated ex vivo for 1 h with PBS alone. Mice were euthanized 3, 24 or 48 h later. The nasopharynx and lungs were excised, homogenized and plated onto blood agar plates for counting. […]

Assay [4] concerns S. pneumoniae strain R6 adhesion to A549 cells. The assay is described as follows: Inhibition of adhesion of S. pneumoniae strain R6 to A549 cells. Type of assay: cell-based, Streptococcus pneumoniae. The conditions noted are these: bacteria treated 1 h with peptide, added to A549 cells (plates without fibronectin coating) for 1 h; CFU counting. The procedure:
as §1
(§3) Inhibition of adhesion to A549 cells by anti-rPtsA antiserum, phages or peptides was performed as previously described. Briefly, bacteria were incubated for 1 h with rabbit anti-rPtsA antiserum, the phages, or the selected peptides. […]

Assay [5] has as its system S. pneumoniae strain WU2 adhesion to Detroit 562 cells. Kind of assay: Inhibition of adhesion of S. pneumoniae strain WU2 to Detroit 562 cells. Type of assay: cell-based, Streptococcus pneumoniae. The conditions noted are these: bacteria treated 1 h with peptide, added to Detroit 562 cells for 2 h; CFU counting; 3–6 replicates.
For assay [6], the system named is S. pneumoniae strain D39 adhesion to A549 cells. The assay is described as follows: Inhibition of adhesion of S. pneumoniae strain D39 to A549 cells. The conditions noted are these: bacteria treated 1 h with peptide, added to A549 cells (plates without fibronectin coating) for 1 h; CFU counting. Format: cell-based, Streptococcus pneumoniae. The procedure:
as §1, §3

The next assay concerns the target rPtsA (Streptococcus pneumoniae serotype 4, UniProt A0A0H2UQ90). The assay is described as follows: biochemical. Type of assay: binding. On the procedure:
In all cases, 16 serial dilutions of each putative receptor-derived peptide (~90 nM–3.175 mM) were mixed with a constant concentration of 335 nM labeled rPtsA protein. The normalized change in the fluorescence of the labeled rPtsA protein was plotted against the peptide concentration, and a fit was computed by the NTP program. The experiments were performed in triplicate.
rPtsA labeled with fluorescent NT-495 dye at a constant concentration of 335 nM was mixed with sixteen serial dilutions (~90 nM–3.175 mM) of peptides derived from PCDH19, MMRN1, Eps1, Int β and BMPER. Contactin 4, was used as a negative control. MST analysis was performed using Monolith NT.115 (NanoTemper Technologies GmbH, München, Germany). The normalized change in the fluorescence of bound and unbound labeled rPtsA (ΔF) is indicative of the peptide binding. Plotting ΔF vs. peptide concentration facilitated the generation the dissociation curves, computed by the NTP program. In this way the Kd, reflecting the affinity of each of the peptides for rPtsA, was obtained. […] Each experiment was performed in triplicate.

In assay [7] the target is HAT-tagged recombinant phosphoenolpyruvate protein phosphotransferase (rPtsA) (Streptococcus pneumoniae (serotype 3 strain WU2)). The assay is described as follows: MST; labeled rPtsA (NT-495 dye) constant at 335 nM; 16 serial dilutions of each peptide (~90 nM–3.175 mM); Monolith NT.115; triplicate.
[8] abbreviates: bacteria incubated 1 h with antiserum or phage, then added to gelatin-blocked A549 cells (fibronectin-coated plates) for 1 h.
[9] abbreviates: bacteria treated 1 h with peptide, added to A549 cells (96-well plates without fibronectin coating) for 1 h.
Where [10] appears, read: WU2 pretreated with Eps 1 (14.7 μM), versus sham-treated (PBS) bacteria.
[11] abbreviates: WU2 pretreated with peptide (Eps 1 14.7 μM; BMPER 7 and 14 μM; PCDH19 14.7 and 27.4 μM), versus sham-treated bacteria.

Ends that are not written are not given here.

DQRPAXRRMYRA [phage D10]: the “Inhibition of adhesion of strain WU2 to A549 cells” value in [1] (setting [8]) was “inhibited”.

Regarding TEQVSDQKNAPA [MMRN1], the “Inhibition of adhesion of strain WU2 to A549 cells” value in assay [1] (setting [9]) is on record as “significant inhibition”. Besides, in [2], the “Inhibition of adhesion of strain 3.8DW to A549 cells” value is on record as “significant inhibition”.

For the molecule ADGGVPV [phage H10], in assay [1] (setting [8]), the “Inhibition of adhesion of strain WU2 to A549 cells” value was “inhibited”. Moreover, the “Reduction in adhesion of strain WU2 to A549 cells” value in assay [1] (phage incubated with strain WU2 for 1 h, added to A549 cells, in comparison to adhesion of bacteria without inhibitors) is listed as 75%.

Consider AVVVNDANRTRK [phage D3], for which, in [1] (setting [8]), the “Inhibition of adhesion of strain WU2 to A549 cells” value is “inhibited”.

As for LPADWATTLMVCSSK [scrambled peptide], in [3], the “Inhibition of adhesion of S. pneumoniae to A549 cells” value is “No significant inhibition”.

Consider SDGGVPV [Eps 1], for which the “Inhibition of adhesion of strain WU2 to A549 cells” value in [1] (setting [9]) is “significantly inhibited”. In the assay with S. pneumoniae strain WU2 (setting [10]), the “Bacterial load in the lungs, 3 h post inoculation” value is “significant reduction” and the “Bacterial load in the nasopharynx, 3 h post inoculation” value is recorded as “significant reduction”. In the assay with S. pneumoniae strain WU2 (setting [11]), the “Bacterial load in the lungs, 48 h post inoculation” value is on record as “significant reduction” and the “Bacterial load in the nasopharynx, 48 h post inoculation” value is given as “significant reduction”. Also, in assay [4], the “Inhibition of adhesion of strain R6 to A549 cells” value is listed as “significantly inhibited”. Besides, the “Inhibition of adhesion of strain 3.8DW to A549 cells” value in assay [2] was “significantly inhibited”. The “Inhibition of adhesion of strain WU2 to Detroit 562 cells” value in assay [5] is on record as “significant inhibition”. For the same molecule, the “Inhibition of adhesion of strain D39 to A549 cells” value in assay [6] was “significantly inhibited”.

For the molecule VLVKNDARRTRS [BMPER], binding on rPtsA was put at a Kd of 21 ± 5.49 µM.

For the molecule TXQVSNHKNHTN [phage E6], in assay [1] (setting [8]), the “Inhibition of adhesion of strain WU2 to A549 cells” value is recorded as “inhibited”.

On to ADDESPEMKPGX [phage D8], for which the “Inhibition of adhesion of strain WU2 to A549 cells” value in assay [1] (setting [8]) is “inhibited”.

For the molecule DQVARIPVIRRV [Intβ4], at rPtsA, the Kd (usually the constant that tells how readily two partners part at equilibrium) worked out at 115 ± 20.5 µM.

With LDSIRIIVIRRI [phage H9], the “Inhibition of adhesion of strain WU2 to A549 cells” value in assay [1] (setting [8]) is reported as “inhibited”.

Consider VVVSDATRVRVA [Col VII], for which the “Inhibition of adhesion of strain WU2 to A549 cells” value in assay [1] (setting [9]) is “significant inhibition”. Besides, the “Inhibition of adhesion of strain 3.8DW to A549 cells” value in [2] was “significant inhibition”.

On to “WECKANGRPKPTY [Contactin 4-derived peptide, reference compound]”, for which the “Kd (affinity of rPtsA binding to peptide)” value on rPtsA (MST, Monolith NT.115, 335 nM NT-495-labeled rPtsA, 16 serial dilutions of peptide ~90 nM–3.175 mM, fit by NTP program, triplicate) is listed as “a fit could not be generated”.

B1: PCDH19-derived peptide (peptide)
peptide: DGGVPML
Turning to B1, in assay [7], the Kd came out at 58 µM.

B2: MMRN1-derived peptide (peptide)
peptide: TEQVSDQKNAPA
For the molecule B2, the Kd in assay [7] was 391 µM.

B3: Int β4-derived peptide (peptide)
peptide: DQVARIPVIRRV
Regarding B3, in [7], the Kd was 115 µM.

B4: Eps 1-derived peptide (peptide)
peptide: SDGGVPV
In the case of B4, the Kd in assay [7] amounted to 43.9 µM.

B5: BMPER-derived peptide (peptide)
peptide: VLVKNDARRTRS
On to B5, for which the Kd in assay [7] amounted to 21 µM.

Source of the values: publication PMC4798226, “Streptococcus pneumoniae Cell-Wall-Localized Phosphoenolpyruvate Protein Phosphotransferase Can Function as an Adhesin: Identification of Its Host Target Molecules and Evaluation of Its Potential as a Vaccine” (PLoS ONE, 2016).
